Measurements as given in patent US11135310B2, “Gold porphyrin-PEG conjugates and methods of use” (The University of Hong Kong, priority 2015, dated 2021).
Blank lines part the entries; values can stand above or below the compound they belong to.

What was measured:
HCT116 xenografts = assay type: in vivo; details: 4 mg/kg intravenous, 24 days, n=8, p<0.01
Text: FIGS. 8B and 8C show changes in tumor volume and body weight, respectively, in mice (n=8) after treatment with different doses of 1 or A1. The control group received an equal volume of PBS only. ** denotes p<0.01 vs. control.
Significant pulmonary hemorrhage in the alveoli and a thickening of alveolar walls were found. Also, apoptotic hepatocytes and swollen renal epithelial cells were found, leading to subsequent shrinkage of kidney tubules. […] The lower systemic toxicity of 1 can be explained by the lower accumulation of 1 in the organs of mice treated at its effective dosage, as compared to that of A1 and Au1a (FIG. 10).

CCD-19Lu = assay: In vitro cytotoxicity, MTT assay; assay type: cell-based; details: 72 h incubation
HCT116 cells = assay: Hydrolysis of the gold(III) complexes in live cells, UPLC-QTOF-MS; assay type: in vitro ADME, human; details: 2 μM, 24 h, UPLC-QTOF-MS of lysates
Method: Hydrolysis of the gold(III) complexes in live cells has been studied by ultra-performance liquid chromatography coupled quadrupole-time-of-flight mass spectrometry (UPLC-QTOF-MS). Colon cancer cells, HCT116, were treated with 1 and A1 (2 μM) for 24 h, harvested and lysed by acetonitrile-water solution mixture (3:1, v/v) prior to UPLC-QTOF-MS analysis. […] In view of the fact that the peak with retention time of 6.44 min in the total-ion chromatogram of cell lysates of HCT116 treated with 1 was absence in the total-ion chromatogram of 1 in acetonitrile solution, this peak should be owing to the metabolite of 1 formed in HCT116 cells.

A2780adr cells = assay: Cellular uptake by ICP-MS; assay type: cell-based, human; details: 2 μM, 37° C.
Text: Based on the results of previous study on cellular uptake of nanostructures [Davis, M. E. et al. Nat. Rev. Drug Discov. 2008, 7, 771] and the strong dependence of the uptake mechanism of 1 on temperature, K^+ concentration and hypertonic condition (FIG. 3d), nanostructures of 1 likely entered live cells by clathrin-mediated endocytosis.
To rationalize the lower toxicity of NC1 toward MIHA cells, cellular uptake of NC1 by MIHA and cancer cells has been investigated by ICP-MS (FIGS. 3b and 4). The gold contents in A2780 and A2780adr cells were 2.6- and 2.0-fold higher than that in MIHA cells, respectively, after incubation with NC1 for 2 h. […] On the other hand, co-incubation of MIHA cells with 1 and DOX should not lead to significant changes in cellular uptake rate of DOX. […] For NC1, it was less toxic toward MIHA cells as reflected by the apparent “strong antagonism” (Table 3), which should be owing to the decrease of DOX cellular uptake by the encapsulation from the nanostructures of 1, rather than real antagonism from DOX and 1.

MIHA = assay: In vitro cytotoxicity, MTT assay; details: MIHA; MTT assay, 72 h incubation
HCT116 = assay: In vitro cytotoxicity, MTT assay; assay type: cell-based, human
[1] = Systemic toxicity in mice bearing HCT116 xenografts (body weight, histopathology, blood biochemistry); assay type: in vivo
Text: FIGS. 9A-9H show blood biochemistry analysis of ALT, AST, GLB, BUN, CREA, UA, LDH and CK, respectively, in the mice (n=8) at 24 days post-treatment.

NCI-H460 = assay: In vitro cytotoxicity, MTT assay; assay type: cell-based, human; details: for IC50: MTT assay, 72 h incubation
A2780adr = details: for IC50: MTT assay, 72 h incubation
NCM460 = assay: In vitro cytotoxicity, MTT assay; assay type: cell-based, human; details: 72 h incubation
non-tumorigenic cells = assay: In vitro cytotoxicity, MTT assay, non-tumorigenic cells; assay type: cell-based; details: 72 h
A2780 = assay: In vitro cytotoxicity, MTT assay; assay type: cell-based, human
A2780cis = assay: In vitro cytotoxicity, MTT assay; assay type: cell-based, human
HeLa = assay: In vitro cytotoxicity, MTT assay; assay type: cell-based, human; details: for IC50: MTT assay, 72 h incubation, read-out: IC50
Text: Therefore, it was anticipated that a not too high loading of DOX into nanostructures of 1 could be used for anti-cancer purposes in order to maintain low toxicity toward non-tumorigenic cells. Together with the higher encapsulation efficiency of DOX, NC1 was selected for investigations of the in vitro cytotoxicity. […] The in vitro cytotoxicity of NC1 was also compared to that of the mixture of nanostructures of 1 and DOX. […] The observed cytotoxicity was further evaluated by the combination index (CI), which can describe the effect of drug combination. […] It is shown that dose and effect are interchangeable via defined parameters. This general equation for the single drug effect has been extended to the multiple drug effect equation for n drugs. These equations provide the theoretical basis for the combination index (CI)-isobologram equation that allows quantitative determination of drug interactions, where CI<1, =1, and >1 indicate synergism, additive effect, and antagonism, respectively. [Chou, et al. Pharmacol. Rev. 2006, 58, 621] […] The synergistic effect can originate from different molecular targets and/or mechanism of action of DOX from that of gold(III) porphyrin complexes. […] These different modes of action would allow supra-additive effect on killing HeLa cells by the co-delivery.

[2] = IC50 of MIHA cells/IC50 of cancer cells
[3] = IC50 of NCM460 cells/IC50 of cancer cells

SMILES: COC(=O)c1ccc(-c2c3nc(c(-c4ccccc4)c4ccc([n-]4)c(-c4ccccc4)c4nc(c(-c5ccccc5)c5ccc2[n-]5)C=C4)C=C3)cc1.[Au+3].[Cl-] [A1]
Reduction of tumor volume (HCT116 xenografts): 56% | Reduction of tumor weight (HCT116 xenografts): 49% | IC50 (CCD-19Lu): 730 ± 40 nM | Species formed by hydrolysis of ester bond in cells (HCT116 cells): [Au(TPP—COOH)]^+ | Incubation time after which amount in A2780adr cells decreases (A2780adr cells): 0.75 h | IC50 (MIHA): 700 ± 100 nM | IC50 (HCT116; HCT116, MTT assay, 72 h incubation): 90 ± 10 nM | Toxicity toward cancer cells compared to that toward MIHA cells (HCT116; HCT-116, IC50 of MIHA cells/IC50 of cancer cells): 7.7 | Toxicity toward cancer cells compared to that toward NCM460 cells (HCT116; HCT-116, IC50 of NCM460 cells/IC50 of cancer cells): 1.4 | Blood biochemistry (organ damage indicators) ([1]; 4 mg/kg, for 1: ALT, GLB, BUN and CK, p<0.05): significant damage in the lung, liver and kidney | Histopathological analysis of lung, liver, kidney, heart and spleen ([1]; after treatment (A1: 4 mg/kg)): damage in normal lung, liver and kidney tissues | Toxicity toward cancer cells compared to that toward MIHA cells (NCI-H460; [2]): 7.0 | Toxicity toward cancer cells compared to that toward NCM460 cells (NCI-H460; [3]): 1.3 | IC50 (NCI-H460): 100 ± 10 nM | Toxicity toward cancer cells compared to that toward MIHA cells (A2780adr; A2780adr, IC50 of MIHA cells/IC50 of cancer cells): 1.1 | Toxicity toward cancer cells compared to that toward NCM460 cells (A2780adr; A2780adr, IC50 of NCM460 cells/IC50 of cancer cells): 0.2 | IC50 (A2780adr; A2780adr): 650 ± 60 nM | Resistance found in A2780adr (A2780adr; Determined by IC50 of A2780adr cells/IC50 of A2780 cells): 0.31 | IC50 (NCM460): 130 ± 10 nM | IC50 for non-tumorigenic cells (non-tumorigenic cells): submicromolar range | Toxicity toward cancer cells compared to that toward MIHA cells (A2780; [2]): 3.5 | Toxicity toward cancer cells compared to that toward NCM460 cells (A2780; [3]): 0.7 | IC50 (A2780; MTT assay, 72 h incubation): 200 ± 20 nM | Toxicity toward cancer cells compared to that toward MIHA cells (A2780cis; A2780cis, IC50 of MIHA cells/IC50 of cancer cells): 3.5 | Toxicity toward cancer cells compared to that toward NCM460 cells (A2780cis; A2780cis, IC50 of NCM460 cells/IC50 of cancer cells): 0.7 | IC50 (A2780cis; A2780cis, MTT assay, 72 h incubation): 200 ± 30 nM | Resistance found in A2780cis (A2780cis; Determined by IC50 of A2780cis cells/IC50 of A2780 cells): 1.0 | Toxicity toward cancer cells compared to that toward MIHA cells (HeLa; IC50 of non-tumorigenic MIHA cells/IC50 of cancer cells): 0.9 | Toxicity toward cancer cells compared to that toward NCM460 cells (HeLa; IC50 of non-tumorigenic NCM460 cells/IC50 of cancer cells): 0.2 | IC50 (HeLa): 800 ± 100 nM

IC50 (A2780adr; A2780adr): 530 ± 140 nM
SMILES: Oc1ccc(-c2c3nc(c(-c4ccccc4)c4ccc([n-]4)c(-c4ccccc4)c4nc(c(-c5ccccc5)c5ccc2[n-]5)C=C4)C=C3)cc1.[Au+3].[Cl-] [A4]
IC50 (MIHA): 570 ± 40 nM | IC50 (NCI-H460): 150 ± 3 nM | IC50 for non-tumorigenic cells (non-tumorigenic cells): submicromolar range | IC50 (HeLa): 380 ± 70 nM
